Consider one compound from article PMC12106615, “Population pharmacokinetics of colistin sulfate in critically ill patients based on NONMEM” (Scientific Reports, 2025).

Structures can show the parent of a compound that is named as a salt. Bridge positions count the residues as written; N and C are the ends. Square brackets hold non-standard residues; d marks the D form. Peptide text beside a SMILES is read from it. * marks the point of attachment. X1 = CC[C@H](C)CCCCC(=O)*; Dab = NCC[C@H](N)C(=O)O

Data set [1] is described as follows: Population pharmacokinetic (PPK) model of colistin sulfate, NONMEM, two-compartment with first-order elimination. Format: in vivo, human. The method, then:
PPK analyses were performed using NONMEM version 7.5 (Icon Development Solutions, Ellicott City, MD, USA) and Pirana version 3.0. Ggplot2 version 3.5.1 package in R software (version 4.1.3, R-project.org) and Xpose version 4.3.2 packages were used to generate line plots and diagnostic plots, respectively.
One- and two-compartment structural models with first-order elimination characteristics of colistin sulfate were constructed using NONMEM software. Between-subject variability (BSV) was assessed using an exponential function. Within-subject variability (WSV) was assessed by additive, proportional, or combined (additive plus proportional) models, while model with the smallest variability represented the best ones. The base model was chosen according to diagnostic plots and goodness-of-fit criteria, including improvement of the OFV and precision and plausibility of parameter estimation. The factors influencing fixed effects were screened based on our previous study. Covariates were included in the base models in a stepwise manner, and testing was performed by using the following statistical criteria: ΔOFV > 3.84, P < 0.05. The covariate was considered to have a significant influence at ΔOFV > 3.84 and retained in the model or eliminated otherwise. All covariates with significant influence on models were then incorporated into the base models to construct full regression models. The full regression models were then subjected to reverse elimination. The included covariates were tested using stricter statistical criteria (ΔOFV > 6.63, P < 0.01), and covariates showing a small influence on the models were eliminated, thereby yielding the final model.
Goodness-of-fit plots, nonparametric bootstrap, and pc-VPC were used to evaluate the final model and parameter estimates. A nonparametric bootstrap procedure was utilized to assess the performance and stability of the final model. Random sampling and individual replacement were used to generate 1000 replicate datasets. The median and 95% CI values of the final model parameters obtained using bootstrap validation were then compared, and the predictive performance of the model was validated. The dataset was simulated 1000 times using the $SIMULATION block in NONMEM. The 90% CI values for the 5 th, 50 th, and 95 th percentiles of the simulated concentrations were calculated. The time curves were then plotted after the last dose and compared with the observed concentrations for prediction and variability correction using pc-VPC.

A short description of data set [2]: Clinical outcome (14-day mortality) of patients receiving intravenous colistin sulfate. The data set is classed as in vivo, human. To be noted: 178 critically ill patients, mostly combination therapy. The source says: (§1) The retrospective study subjects were patients admitted to Beijing Electric Power Hospital, Beijing, China, between May 2022 and May 2024. The study design conformed to the principles of the Declaration of Helsinki, and the study was approved by the Ethics Research Committee of Beijing Electric Power Hospital (approval no: n090327). Written informed consent was obtained from all patients or their legal representatives. In clinical practice, adult patients who had received intravenous colistin sulfate (Specification: 0.5 MU; Asia Pioneer Pharmaceutical Co., Ltd., Shanghai, China) with at least one measurement of colistin sulfate concentration were eligible for inclusion. The inclusion criteria were as follows: (1) age ≥ 18 years, (2) patients who had received colistin sulfate treatment, and (3) patients with at least one measurement of colistin sulfate concentration. The exclusion criteria were as follows: (1) patients who died within 24 h after receiving colistin sulfate treatment, (2) patients who received nebulized colistin sulfate and intrathecal colistin sulfate, and (3) patients who also received continuous renal replacement therapy during colistin sulfate treatment. […] The RIFLE criteria (risk, injury, failure, loss, and end-stage kidney disease), estimated with exclusion of the urinary output criterion, were used for detection and stratification of acute kidney injury.

The nature of data set [3]: Nephrotoxicity / acute kidney injury by RIFLE criteria. Format: in vivo, human. To be noted: 178 critically ill patients, empirical intravenous colistin sulfate; RIFLE criteria without urinary output criterion.
From the text: as §1

The conditions of data set [4]: 14 patients with successful treatment; ref Yu et al.[14]; cited from earlier work. The method, then:
The steady-state plasma concentration (Css.avg) of these 129 patients was 0.93 ± 0.35 mg/L, which was inconsistent with the value (2.0–2.4 mg/L) jointly recommended by the multidisciplinary expert consensus[17] on the rational clinical use of colistin in China. This consensus considered that the in vitro antimicrobial activit ...

For data set [5] the following is noted: previous studies; ref [14],[25]–[29]; cited from earlier work. The source says:
Advanced age, the presence of multiple coexisting diseases, severe infections, low fluid replacement volume, and exposure to combination therapy with multiple drugs are recognized as risk factors for the development of acute kidney injury associated with colistin sulfate treatment. If colistin sulfate is the only factor considered, a Css level of ...

Where [6] appears, read: 178 critically ill patients, 364 concentrations, intravenous.
The mark [7] stands for this setting: nonparametric bootstrap, 1000 replicate datasets.

Usually clearance stands for the volume of plasma or blood freed of the substance per unit of time. Turning to `CC[C@H](C)CCCCC(=O)N[C@@H](CCN)C(=O)N[C@H](C(=O)N[C@@H](CCN)C(=O)N[C@H]1CCNC(=O)[C@H]([C@@H](C)O)NC(=O)[C@H](CCN)NC(=O)[C@H](CCN)NC(=O)[C@H](CC(C)C)NC(=O)[C@@H](CC(C)C)NC(=O)[C@H](CCN)NC1=O)[C@@H](C)O` [colistin sulfate] (X1-[Dab]T[Dab][Dab][Dab][dL]L[Dab][Dab]T; lactam 4-C), in data set [1] (setting [6]), the “tvQ, typical value of inter-compartmental clearance, final model estimate” value is recorded as 1.63 L/h and the “tvV2, typical value of volume of peripheral compartment distribution, final model estimate” value is 109 L. Besides, the “tvV1, typical value of volume of central compartment distribution, final model estimate” value in data set [1] (178 critically ill patients, 364 concentrations, intravenous, weight as covariate) was 49.7 L. Besides, the “dVdWT, exponential parameter coefficient of WT to V1, final model estimate” value in data set [1] (final PPK model) was 1.2. The clearance in data set [1] (human, plasma, 178 critically ill patients, 364 concentrations, intravenous, CrCL as covariate, read-out: tvCL, typical value of central compartment clearance, final model estimate (converted)) was 44.3 mL/min. Moreover, in data set [1] (setting [7]), the “dCLdCrCL, bootstrap median” value is on record as 0.466; the “dVdWT, bootstrap median” value came to 1.28; the “tvCL, bootstrap median” value worked out at 2.67 L/h; the “tvQ, bootstrap median” value was 1.67 L/h. Also, in data set [1] (setting [7]), the “tvV1, bootstrap median” value is on record as 50.04 L and the “tvV2, bootstrap median” value came to 103.65 L. In addition, in data set [2], the 14-day mortality rate was 27.53%. Moreover, in data set [3], the “Acute kidney injury (nephrotoxicity) incidence” value stood at 11.8%. Further, the “Css.avg of colistin sulfate” value in data set [4] was 1730 ± 980 ng/mL. For the same compound, in data set [5], the “Incidence rate of nephrotoxicity induced by colistin sulfate” value was “less than 21.25%”.
